According to PubChem BioAssay AID1963966 (Molecular Pharmacology Branch, DTP, NCI, 2024):

System: 935938-334-R-J1-PDC spheroids with HUVEC/MSC, viability
Experiment: Anticancer human tumor 935938-334-R-J1-PDC patient-derived small intestine adenocarcinoma cell line growth inhibition [PI3K]
Settings: for IC50: curve of first compound; for viability, T/C: stronger effect = lower value; active = viability on the fitted dose curve at most 10% of control; inactive = the rest
Procedure, shortened: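 Complex 3D spheroids (cancer cells + endothelial HUVEC + mesenchymal stem cells); drug pairs of targeted agent x inavolisib/alpelisib/duvelisib/copanlisib; half-log series from ~Cmax, max 10 microM if Cmax unknown; endpoint viability.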

[1] = second compound 0.0316 µM, first compound 0.0316 µM
[2] = second compound 0.0316 µM, first compound 0.1 µM
[3] = second compound 0.0316 µM, first compound 0.316 µM
[4] = second compound 0.0316 µM, first compound 1 µM
[5] = second compound 0.1 µM, first compound 0.0316 µM
[6] = second compound 0.1 µM, first compound 0.1 µM
[7] = second compound 0.1 µM, first compound 0.316 µM
[8] = second compound 0.1 µM, first compound 1 µM
[9] = second compound 0.316 µM, first compound 0.0316 µM
[10] = second compound 0.316 µM, first compound 0.1 µM
[11] = second compound 0.316 µM, first compound 0.316 µM
[12] = second compound 0.316 µM, first compound 1 µM
[13] = second compound 1 µM, first compound 0.0316 µM
[14] = second compound 1 µM, first compound 0.1 µM
[15] = second compound 1 µM, first compound 0.316 µM
[16] = second compound 1 µM, first compound 1 µM
[17] = second compound 3.16 µM, first compound 0.0316 µM
[18] = second compound 3.16 µM, first compound 0.1 µM
[19] = second compound 3.16 µM, first compound 0.316 µM
[20] = second compound 3.16 µM, first compound 1 µM
[21] = second compound 10 µM, first compound 0.0316 µM
[22] = second compound 10 µM, first compound 0.1 µM
[23] = second compound 10 µM, first compound 0.316 µM
[24] = second compound 10 µM, first compound 1 µM
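Note: compound exposure lasted seven days before viability was read.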
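Throughout, for viability, T/C: percent of vehicle DMSO treated spheroid viability so 100% = untreated.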

CC(C)NCC(C(=O)N1CCN(c2ncnc3c2C(C)CC3O)CC1)c1ccc(Cl)cc1 (centres undefined) + Cc1nc(NC(=O)N2CCCC2C(N)=O)sc1-c1ccnc(C(C)(C)C(F)(F)F)c1
1290 nM: IC50 (second compound 1 µM)
79.6 nM: IC50 (second compound 3.16 µM)
> 10000 nM: IC50 (second compound 0.1 µM)
328 nM: IC50 (second compound 10 µM)
2020 nM: IC50 (second compound 0.0316 µM)
inactive: viability, T/C [1] 80.2% | viability, T/C [2] 104% | viability, T/C [3] 75.9% | viability, T/C [4] 61.5% | viability, T/C (second compound 0.0316 µM, first compound 3.16 µM) 44.3% | viability, T/C (second compound 0.0316 µM, first compound 10 µM) 37.4% | viability, T/C [5] 89.2% | viability, T/C [6] 101% | viability, T/C [7] 82.5% | viability, T/C [8] 50.5% | viability, T/C (second compound 0.1 µM, first compound 3.16 µM) 61% | viability, T/C (second compound 0.1 µM, first compound 10 µM) 44.2% | viability, T/C [9] 94.7% | viability, T/C [10] 80.5% | viability, T/C [11] 86.2% | viability, T/C [12] 55.8% | viability, T/C (second compound 0.316 µM, first compound 3.16 µM) 49.4% | viability, T/C (second compound 0.316 µM, first compound 10 µM) 38.5% | viability, T/C [13] 70% | viability, T/C [14] 67.4% | viability, T/C [15] 72.8% | viability, T/C [16] 54.4% | viability, T/C (second compound 1 µM, first compound 3.16 µM) 33.6% | viability, T/C (second compound 1 µM, first compound 10 µM) 35.8% | viability, T/C [17] 74.9% | viability, T/C [18] 43% | viability, T/C [19] 46.5% | viability, T/C [20] 52.8% | viability, T/C (second compound 3.16 µM, first compound 3.16 µM) 39.9% | viability, T/C (second compound 3.16 µM, first compound 10 µM) 27.8% | viability, T/C [21] 47.9% | viability, T/C [22] 52.5% | viability, T/C [23] 51% | viability, T/C [24] 35.9% | viability, T/C (second compound 10 µM, first compound 3.16 µM) 39.3% | viability, T/C (second compound 10 µM, first compound 10 µM) 32.2%
1840 nM: IC50 (second compound 0.316 µM)

CCN1CCN(Cc2ccc(Nc3ncc(F)c(-c4cc(F)c5nc(C)n(C(C)C)c5c4)n3)nc2)CC1 + Cc1nc(NC(=O)N2CCCC2C(N)=O)sc1-c1ccnc(C(C)(C)C(F)(F)F)c1
< 3.16 nM: IC50 (second compound 3.16 µM) | IC50 (second compound 10 µM)
18.8 nM: IC50 (second compound 1 µM)
43.2 nM: IC50 (second compound 0.1 µM)
148 nM: IC50 (second compound 0.0316 µM)
inactive: viability, T/C (second compound 0.0316 µM, first compound 0.00316 µM) 88.8% | viability, T/C (second compound 0.0316 µM, first compound 0.01 µM) 68.9% | viability, T/C [1] 64.3% | viability, T/C [2] 57.2% | viability, T/C [3] 43% | viability, T/C [4] 32.4% | viability, T/C (second compound 0.1 µM, first compound 0.00316 µM) 94.5% | viability, T/C (second compound 0.1 µM, first compound 0.01 µM) 92.2% | viability, T/C [5] 53.3% | viability, T/C [6] 45.6% | viability, T/C [7] 37.5% | viability, T/C [8] 35.4% | viability, T/C (second compound 0.316 µM, first compound 0.00316 µM) 86.6% | viability, T/C (second compound 0.316 µM, first compound 0.01 µM) 71.4% | viability, T/C [9] 52.4% | viability, T/C [10] 44.9% | viability, T/C [11] 41.2% | viability, T/C [12] 32.4% | viability, T/C (second compound 1 µM, first compound 0.00316 µM) 69.7% | viability, T/C (second compound 1 µM, first compound 0.01 µM) 59.2% | viability, T/C [13] 40.8% | viability, T/C [14] 37.7% | viability, T/C [15] 26.1% | viability, T/C [16] 28.3% | viability, T/C (second compound 3.16 µM, first compound 0.00316 µM) 41.5% | viability, T/C (second compound 3.16 µM, first compound 0.01 µM) 44.6% | viability, T/C [17] 42.6% | viability, T/C [18] 30.7% | viability, T/C [19] 25.7% | viability, T/C [20] 30.1% | viability, T/C (second compound 10 µM, first compound 0.00316 µM) 39.2% | viability, T/C (second compound 10 µM, first compound 0.01 µM) 44.7% | viability, T/C [21] 34.1% | viability, T/C [22] 26.2% | viability, T/C [23] 35% | viability, T/C [24] 28.5%
55.5 nM: IC50 (second compound 0.316 µM)
